The NIST ThermoML archive (doi:10.1021/je050216m)
Values joined by “and” are separate entries in the source; they are usually repeats but may differ in a detail not shown here. Equal entries are not always repeated.

Settings: Crystal, Closed cell (Static) method

c1ccc2ccccc2c1 [naphthalene]
Settings | vapor or sublimation pressure
258.48 K | 0.00011 kPa
258.49 K | 0.00011 kPa
263.48 K | 0.00022 kPa
263.49 K | 0.00023 kPa
268.48 K | 0.00042 kPa and 0.00041 kPa and 0.00043 kPa
273.48 K | 0.00078 kPa and 0.00077 kPa
273.49 K | 0.00078 kPa and 0.00077 kPa
273.68 K | 0.0008 kPa and 0.00081 kPa
278.48 K | 0.00137 kPa and 0.00138 kPa
278.49 K | 0.00138 kPa [middle of 4 runs]
283.49 K | 0.00241 kPa
288.49 K | 0.00411 kPa and 0.0041 kPa
293.49 K | 0.00688 kPa
298.49 K | 0.0114 kPa and 0.0113 kPa
303.5 K | 0.0183 kPa and 0.0182 kPa
308.51 K | 0.029 kPa
313.52 K | 0.0454 kPa and 0.0455 kPa
